Reference: patent US20250257111A1, “Supramolecular Complex of a Biomolecule” (Cambridge Enterprise Limited, priority 2022, published 2025)
Each block holds one molecule with its values, some of them ahead of it. Square brackets hold non-standard residues; d marks the D form. Peptide text beside a SMILES is read from it. 2Nal = N[C@@H](Cc1ccc2ccccc2c1)C(=O)O

Experiments:
[1] = system: 1:1 complex of F′GG-CB[8]; test: ITC: secondary association of tripeptides with the 1:1 complex of F′GG-CB[8]; assay type: binding; details: for Ka: 10 mM phosphate buffer pH 7.0, 298 K, averaged with three replicates; for secondary association / binding to F′GG-CB[8]: in words
Procedure: (§1) Isothermal titration calorimetry (ITC) was employed to study binding thermodynamics of heteropeptide dimerization (FIG. 2c and additional data not shown). Titration of F′GG (3.0 mM) into CB[8](0.1 mM) led to a stepwise binding curve with two transitions at molar ratios of 1.0 and 2.0 (FIG. 2c). The first-step binding constant (K1) is 6.6×10^5 M^−1, while the second-step (K2) is 9.4×10^3 M^−1. This indicates negative cooperativity where K1>K2^18,19,23 Such favourable 1:1 complexation enables secondary access of electron-rich aromatic peptides.
(§2) ITC experiments were operated on a Malvern MicroCal Auto-ITC200 apparatus at 298 K in 10 mM phosphate buffer with pH 7.0. In a of 1 injection of 0.6 μL and 32 consecutive injections of 1.2 μL with 90 s intervals between injections. The first data point was removed before analysis. The ITC data were fitted by MicroCal Analysis Centre software using one set of sites model. In a typical experiment for homoternary complexation, the host molecule (CB[8]) was loaded in the sample cell with a concentration of 0.1 mM, and the guest peptide was loaded in the syringe with a concentration of 2.0 mM. The injection and interval settings were the same as above. The first data point was removed from the data set before analysis. The obtained ITC curves were fitted by MicroCal Analysis Centre software using sequential binding model. All parameters were averaged with three replicates, s.d. n=3.

[2] = ITC: titration of F′GG into CB[8] (stepwise binding); details: F′GG (3.0 mM) into CB[8] (0.1 mM)
Procedure: as §1
as §2, with “All parameters were averaged with three replicates, s.d. n=3.” left out

[3] = cited from earlier work
[4] = CD secondary structure verification of released insulin; assay type: physicochemical
Procedure: CD measurements were performed on a Chirascan spectrometer (Applied Photophysics). Scans were carried out at 298 K from 200-500 nm at 1.0 nm intervals. The acquisition time was 0.5 second in a 0.1 cm path length quartz cuvette. CD spectra were collected using solutions from the above UV experiments of the 8-day storage and release experiments. […] All solutions were diluted 2× before the measurements. All scans were collected and averaged out over three scans with background noise correction.

[5] = UV quantification of insulin on-resin recognition, 8-day storage and on-demand release; assay type: physicochemical
Procedure: UV spectra were obtained on a Cary 4000 Ultravioletvisible Spectrometer. A pair of quartz cuvettes with 2 mm gap was used. Double beam mode with a fixed 2 nm spectral bandwidth and baseline correction were selected. In a typical run, 300 μl of 1 mM solution was transferred to the quartz cuvette and was scanned compared to phosphate buffer in D2O. UV spectra were obtained in the linear absorption range (0.2-0.8) for better quantification.
1 N HCl was immediately added to reach acid concentration of 5 mM. […] In a typical experiment, 8 μmol F′GGGGG equivalent of resin H2O suspension was added to a 12 ml syringe with a polyester frit (r=8.0 mm, h=2.0 mm). After H2Owas drained, 8 ml of 0.1 mM CB[8] solution was added to the resin and the plunge and a stopper were assembled to the syringe to form a sealed chamber. The syringe was transferred onto a wrist-action shaker and shaken for 12 hours. […] Then, the liquid (resin-treated solution) in syringe was drained thoroughly and the resin was washed with H2Oonce. After that, 0.8 ml of 2 mM DMADA solution (in 5 mM of HCl) was added to the resin and shaken gently for an additional 3 hours. The solution (released solution) was drained.
The 8-day storage and release experiment was conducted as follows. 9 syringes were prepared each with 8 μmol F′GGGGG equivalent of resin H2Osuspension. […] All syringes with the resin were kept at room temperature. Starting from day 0 to day 8, on each day, a syringe with resin was added with 0.8 ml of 2 mM DMADA solution (to get released solution, one per day). All yielded solutions were analyzed on UV spectroscopy immediately. Numbers to calculate released percentage in FIG. 4g were absorbance at 276 nm.

Molecule: NCC(=O)N[C@@H](Cc1ccc(O)cc1)C(=O)NCC(N)=O [GYG] (H-Gly-Tyr-Gly-NH2)
- Ka [1]: 4 ± 0.3 10^3M^−1

- secondary association / binding to F′GG-CB[8] [1]: no secondary association
Molecule: NCCCC[C@H](N)C(=O)NCC(=O)NCC(N)=O [KGG, (S)-2,6-diamino-N-(2-((2-amino-2-oxoethyl)amino)-2-oxoethyl)hexanamide, reference compound] (H-Lys-Gly-Gly-NH2)

Molecule: NCC(=O)NCC(=O)N[C@@H](Cc1ccccc1)C(N)=O [GGF, (S)-2-(2-(2-aminoacetamido)acetamido)-3-phenylpropanamide] (H-Gly-Gly-Phe-NH2)
- Ka [1]: 22 ± 1 10^3M^−1

- secondary association / binding to F′GG-CB[8] [1]: no secondary association
Molecule: CC(C)C[C@H](N)C(=O)NCC(=O)NCC(N)=O [LGG, reference compound] (H-Leu-Gly-Gly-NH2)

Molecule: NC(=O)CNC(=O)CNC(=O)[C@@H](N)Cc1c[nH]c2ccccc12 [WGG, (S)-2-amino-N-(2-((2-amino-2-oxoethyl)amino)-2-oxoethyl)-3-(1H-indol-3-yl) propanamide] (H-Trp-Gly-Gly-NH2)
- Ka [1]: 460 ± 53 10^3M^−1

- secondary association / binding to F′GG-CB[8] [1]: no secondary association
Molecule: NC(=O)CNC(=O)CNC(=O)[C@@H](N)CCC(=O)O [EGG, reference compound] (H-Glu-Gly-Gly-NH2)

- first-step binding constant (K1) [2]: 660000 M⁻¹
- second-step binding constant (K2) [2]: 9400 M⁻¹
Molecule: (S)-2-amino-N-(2-((2-amino-2-oxoethyl)amino)-2-oxoethyl)-3-(perfluorophenyl) propenamide [F′GG]

Molecule: NCC(=O)N[C@@H](Cc1ccccc1)C(=O)NCC(N)=O [GFG, (S)—N-(2-amino-2-oxoethyl)-2-(2-aminoacetamido)-3-phenylpropanamide] (H-Gly-Phe-Gly-NH2)
- Ka [1]: 58 ± 3 10^3M^−1

- secondary association / binding to F′GG-CB[8] [1]: no secondary binding
Molecule: NCC(=O)NCC(=O)N[C@@H](Cc1ccc(O)cc1)C(N)=O [GGY, (S)-2-(2-(2-aminoacetamido)acetamido)-3-(4-hydroxyphenyl)propanamide] (H-Gly-Gly-Tyr-NH2)

Molecule: NC(=O)CNC(=O)CNC(=O)[C@@H](N)Cc1ccc(O)cc1 [YGG] (H-Tyr-Gly-Gly-NH2)
- Ka [1]: 3 ± 5 10^3M^−1

Molecule: NCC(=O)N[C@@H](Cc1c[nH]c2ccccc12)C(=O)NCC(N)=O [GWG, (S)—N-(2-amino-2-oxoethyl)-2-(2-aminoacetamido)-3-(1H-indol-3-yl)propanamide] (H-Gly-Trp-Gly-NH2)
- Ka [1]: 103 ± 6 10^3M^−1

Molecule: NCC(=O)N[C@@H](Cc1ccc2ccccc2c1)C(=O)NCC(N)=O [GNpG, (S)—N-(2-amino-2-oxoethyl)-2-(2-aminoacetamido)-3-(naphthalen-2-yl)propanamide] (H-Gly-[2Nal]-Gly-NH2)
- Ka [1]: 165 ± 10 10^3M^−1

Molecule: NC(=O)CNC(=O)CNC(=O)[C@@H](N)Cc1ccccc1 [FGG, (S)-2-amino-N-(2-((2-amino-2-oxoethyl)amino)-2-oxoethyl)-3-phenylpropanamide] (H-Phe-Gly-Gly-NH2)
- binding strength K of homodimer 2FGG-CB[8] [3]: ca. 10^11 M^−2
- Ka [1]: 356 ± 26 10^3M^−1

Molecule: insulin: Insulin (Human Recombinant), purchased; widely-used biopharmaceutical for diabetes treatment
- secondary structures of insulin after storage ([4]; after 2, 5, 8 days of storage under room temperature on functionalized resin): intact
- CD absorbance at 208 nm, signal (mean of repeats) ([4]; insulin, original): −56.4 θm · deg
- CD absorbance at 208 nm, signal (mean of repeats) ([4]; released on day 2): −56.4 θm · deg
- CD absorbance at 208 nm, signal (mean of repeats) ([4]; released on day 5): −50.3 θm · deg
- CD absorbance at 208 nm, signal (mean of repeats) ([4]; released on day 8): −52.3 θm · deg
- UV absorbance at 276 nm, released ([5]; release on day 0): 0.176 abs
- UV absorbance at 276 nm, released ([5]; release on day 2, storage at room temperature): 0.1768 abs
- UV absorbance at 276 nm, released ([5]; release on day 5, storage at room temperature): 0.1683 abs
- UV absorbance at 276 nm, released ([5]; release on day 8, storage at room temperature): 0.1739 abs

Molecule: NCC(=O)NCC(=O)N[C@@H](Cc1ccc2ccccc2c1)C(N)=O [GGNp, (S)-2-(2-(2-aminoacetamido)acetamido)-3-(naphthalen-2-yl)propanamide] (H-Gly-Gly-[2Nal]-NH2)
- Ka [1]: 90 ± 2 10^3M^−1

Molecule: NC(=O)CNC(=O)CNC(=O)[C@@H](N)Cc1ccc2ccccc2c1 [NpGG, (S)-2-amino-N-(2-((2-amino-2-oxoethyl)amino)-2-oxoethyl)-3-(naphthalen-2-yl) propanamide] (H-[2Nal]-Gly-Gly-NH2)
- Ka [1]: 382 ± 22 10^3M^−1
